Test results taken from PubChem BioAssay AID256 (DTP/NCI, 2004).
“And” between values parts separate entries of the source, which are not always exact repeats. Equal values may be shown once. Toxic doses and inconclusive results are not listed. How the source made its calls: active means survival T/C of 150% or more; inactive means T/C below 125% in these data.

System: CD2F1 mice, L1210 leukemia ip, survival T/C
Experiment: NCI In Vivo Anticancer Drug Screen. Data for tumor model L1210 Leukemia (intraperitoneal) in CD2F1 (CDF1) mice
Conditions: higher = longer survival
Procedure, shortened: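 Transplantable tumor in mice; compound-treated vs vehicle-treated groups. Read-out = treated/control ratio of the measured endpoint.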

[1] = endpoint: mean survival time, dose: 25.0 mg/kg/injection, schedule: Q01DX009 (ip), vehicle: saline with Tween-80
[2] = endpoint: mean survival time, dose: 50.0 mg/kg/injection, schedule: Q01DX009 (ip), vehicle: saline with Tween-80
[3] = endpoint: mean survival time, dose: 100.0 mg/kg/injection, schedule: Q01DX009 (ip), vehicle: saline with Tween-80
[4] = endpoint: mean survival time, dose: 200.0 mg/kg/injection, schedule: Q01DX009 (ip), vehicle: saline with Tween-80
[5] = endpoint: mean survival time, dose: 100.0 mg/kg/injection, schedule: Q04DX002 (ip), vehicle: saline with Tween-80
[6] = endpoint: mean survival time, dose: 400.0 mg/kg/injection, schedule: Q04DX002 (ip), vehicle: saline with Tween-80
[7] = endpoint: mean survival time, dose: 50.0 mg/kg/injection, schedule: Q01DX009 (ip), vehicle: Klucel (hydroxypropylcellulose) (HPC)
[8] = endpoint: mean survival time, dose: 100.0 mg/kg/injection, schedule: Q01DX009 (ip), vehicle: Klucel (hydroxypropylcellulose) (HPC)
[9] = endpoint: mean survival time, dose: 100.0 mg/kg/injection, schedule: Q04DX003 (ip), vehicle: saline with Tween-80
[10] = endpoint: mean survival time, dose: 200.0 mg/kg/injection, schedule: Q04DX003 (ip), vehicle: saline with Tween-80
[11] = endpoint: mean survival time, dose: 400.0 mg/kg/injection, schedule: Q04DX003 (ip), vehicle: saline with Tween-80

Measured: T/C

Cc1ccc(N)nc1[N+](=O)[O-]
inactive: endpoint: mean survival time, dose: 100.0 mg/kg/injection, schedule: Q01DX009 (ip), vehicle: other 100 % of control | endpoint: mean survival time, dose: 100.0 mg/kg/injection, schedule: Q04DX003 (ip), vehicle: other 102 % of control | endpoint: mean survival time, dose: 200.0 mg/kg/injection, schedule: Q01DX009 (ip), vehicle: other 96 % of control | endpoint: mean survival time, dose: 200.0 mg/kg/injection, schedule: Q04DX003 (ip), vehicle: other 96 % of control | endpoint: mean survival time, dose: 400.0 mg/kg/injection, schedule: Q01DX009 (ip), vehicle: other 100 % of control | endpoint: mean survival time, dose: 400.0 mg/kg/injection, schedule: Q04DX003 (ip), vehicle: other 96 % of control

CCN(CC)CCN1Cc2ccccc2C1
inactive: [1] 102 % of control | [2] 94 % of control | [3] 96 % of control and 107 % of control

CCCC/C=C/C(=O)O
inactive: [2] 98 % of control | [3] 98 % of control | [4] 102 % of control

CCOC(=O)/C=C/C1CCCCC1
inactive: [2] 96 % of control | [3] 104 % of control | [4] 96 % of control

CC(=O)Nc1c(N=Cc2ccc([N+](=O)[O-])cc2)cc2c3c(cccc13)CC2
inactive: endpoint: mean survival time, dose: 50.0 mg/kg/injection, schedule: Q04DX003 (ip), vehicle: Klucel (hydroxypropylcellulose) (HPC) 91 % of control | endpoint: mean survival time, dose: 100.0 mg/kg/injection, schedule: Q04DX003 (ip), vehicle: Klucel (hydroxypropylcellulose) (HPC) 96 % of control | endpoint: mean survival time, dose: 200.0 mg/kg/injection, schedule: Q04DX003 (ip), vehicle: Klucel (hydroxypropylcellulose) (HPC) 94 % of control

CCC(O)C[As](=O)(O)c1ccc(Cl)cc1 (stereo not drawn)
inactive: endpoint: mean survival time, dose: 0.38 mg/kg/injection, schedule: Q01DX009 (ip), vehicle: water 98 % of control | endpoint: mean survival time, dose: 0.78 mg/kg/injection, schedule: Q01DX009 (ip), vehicle: water 98 % of control | endpoint: mean survival time, dose: 1.5 mg/kg/injection, schedule: Q01DX009 (ip), vehicle: water 94 % of control

COc1ccc(NC(=O)Oc2ccc(SC)c(C)c2)cc1
inactive: [1] 101 % of control | endpoint: mean survival time, dose: 25.0 mg/kg/injection, schedule: Q04DX002 (ip), vehicle: saline with Tween-80 100 % of control | [2] 95 % of control | endpoint: mean survival time, dose: 50.0 mg/kg/injection, schedule: Q04DX002 (ip), vehicle: saline with Tween-80 107 % of control | [3] 89 % of control | [5] 91 % of control and 104 % of control | [6] 91 % of control

CCCC(=O)Nc1ncnc2c1nc(SCc1ccccc1)n2C1OC2COP(=O)(O)OC2C1OC(=O)CCC (stereo not drawn)
inactive: endpoint: mean survival time, dose: 6.25 mg/kg/injection, schedule: Q01DX005 (ip), vehicle: water 101 % of control | endpoint: mean survival time, dose: 12.5 mg/kg/injection, schedule: Q01DX005 (ip), vehicle: water 93 % of control | endpoint: mean survival time, dose: 25.0 mg/kg/injection, schedule: Q01DX005 (ip), vehicle: water 93 % of control | endpoint: mean survival time, dose: 50.0 mg/kg/injection, schedule: Q01DX005 (ip), vehicle: water 101 % of control | endpoint: mean survival time, dose: 100.0 mg/kg/injection, schedule: Q01DX005 (ip), vehicle: water 101 % of control

OC1(c2ccccc2)c2ccccc2C(O)(c2ccccc2)c2c1ccc1ccccc21 (stereo not drawn)
inactive: [2] 91 % of control | [3] 94 % of control | [4] 91 % of control

O=C[N]([Hg][Cl])c1ccccc1
inactive: endpoint: mean survival time, dose: 6.25 mg/kg/injection, schedule: Q01DX009 (ip), vehicle: saline with Tween-80 86 % of control

C[N+]1=C(c2ccccc2)CCC(C(C)(C)C)C1 (stereo not drawn)
inactive: endpoint: mean survival time, dose: 37.5 mg/kg/injection, schedule: Q04DX003 (ip), vehicle: saline 102 % of control | endpoint: mean survival time, dose: 75.0 mg/kg/injection, schedule: Q01DX001 (ip), vehicle: saline 95 % of control | endpoint: mean survival time, dose: 75.0 mg/kg/injection, schedule: Q04DX003 (ip), vehicle: saline 96 % of control | endpoint: mean survival time, dose: 150.0 mg/kg/injection, schedule: Q01DX001 (ip), vehicle: saline 92 % of control | endpoint: mean survival time, dose: 150.0 mg/kg/injection, schedule: Q04DX003 (ip), vehicle: saline 100 % of control

CCc1cc(C(C)(C)C)c(O)c(C(C)(C)C)c1
inactive: endpoint: mean survival time, dose: 25.0 mg/kg/injection, schedule: Q01DX009 (ip), vehicle: Klucel (hydroxypropylcellulose) (HPC) 102 % of control | [7] 102 % of control | [8] 98 % of control

O=C(/C=C/c1ccc(Cl)c(Cl)c1)/C=C/c1ccc(Cl)c(Cl)c1
inactive: [7] 98 % of control | [8] 94 % of control | endpoint: mean survival time, dose: 200.0 mg/kg/injection, schedule: Q01DX009 (ip), vehicle: Klucel (hydroxypropylcellulose) (HPC) 90 % of control

CC(C)NC(=O)NO
inactive: endpoint: mean survival time, dose: 4.0 mg/kg/injection, schedule: Q03HX024 (ip), vehicle: saline 95 % of control | endpoint: mean survival time, dose: 8.0 mg/kg/injection, schedule: Q03HX024 (ip), vehicle: saline 98 % of control | endpoint: mean survival time, dose: 16.0 mg/kg/injection, schedule: Q03HX024 (ip), vehicle: saline 103 % of control | endpoint: mean survival time, dose: 32.0 mg/kg/injection, schedule: Q03HX024 (ip), vehicle: saline 98 % of control | endpoint: mean survival time, dose: 62.0 mg/kg/injection, schedule: Q03HX024 (ip), vehicle: saline with Tween-80 87 % of control | endpoint: mean survival time, dose: 64.0 mg/kg/injection, schedule: Q03HX024 (ip), vehicle: saline 98 % of control

COc1cc2c(cc1O)N=C[C@@H]1CCC(O)N1C2=O (mixture of isomers)
inactive: endpoint: mean survival time, dose: 0.5 mg/kg/injection, schedule: Q01DX009 (ip), vehicle: saline 108 % of control | endpoint: mean survival time, dose: 1.0 mg/kg/injection, schedule: Q01DX009 (ip), vehicle: saline 102 % of control and 108 % of control | endpoint: mean survival time, dose: 2.0 mg/kg/injection, schedule: Q01DX009 (ip), vehicle: saline 118 % of control and 111 % of control | endpoint: mean survival time, dose: 4.0 mg/kg/injection, schedule: Q01DX009 (ip), vehicle: saline 113 % of control and 117 % of control | endpoint: mean survival time, dose: 8.0 mg/kg/injection, schedule: Q01DX009 (ip), vehicle: saline 106 % of control and 107 % of control | endpoint: median survival time, dose: 0.1 mg/kg/injection, schedule: Q01DX005 (ip), vehicle: saline 102 % of control | endpoint: median survival time, dose: 0.2 mg/kg/injection, schedule: Q01DX005 (ip), vehicle: saline 102 % of control | endpoint: median survival time, dose: 0.4 mg/kg/injection, schedule: Q01DX005 (ip), vehicle: saline 102 % of control | endpoint: median survival time, dose: 0.8 mg/kg/injection, schedule: Q01DX005 (ip), vehicle: saline 102 % of control | endpoint: median survival time, dose: 1.6 mg/kg/injection, schedule: Q01DX005 (ip), vehicle: saline 107 % of control

COc1cc2c(cc1OC)C(N)CCC2 (stereo not drawn)
inactive: endpoint: mean survival time, dose: 12.5 mg/kg/injection, schedule: Q01DX009 (ip), vehicle: water 97 % of control | endpoint: mean survival time, dose: 25.0 mg/kg/injection, schedule: Q01DX009 (ip), vehicle: water 103 % of control | endpoint: mean survival time, dose: 50.0 mg/kg/injection, schedule: Q01DX009 (ip), vehicle: water 98 % of control | endpoint: mean survival time, dose: 100.0 mg/kg/injection, schedule: Q01DX009 (ip), vehicle: water 105 % of control

Cc1ccc(S(=O)(=O)Nc2ccccc2-c2nc3cc(Cl)ccc3c(=O)o2)cc1
inactive: [9] 87 % of control | [10] 98 % of control | [11] 98 % of control

CC1=CSC2=NC(=O)CCN12
inactive: endpoint: mean survival time, dose: 100.0 mg/kg/injection, schedule: Q01DX001 (ip), vehicle: saline 93 % of control | endpoint: mean survival time, dose: 200.0 mg/kg/injection, schedule: Q01DX001 (ip), vehicle: saline 100 % of control | endpoint: mean survival time, dose: 400.0 mg/kg/injection, schedule: Q01DX001 (ip), vehicle: saline 90 % of control

CCCCCCCCCCCC[S+](C)C
inactive: endpoint: mean survival time, dose: 10.0 mg/kg/injection, schedule: Q04DX003 (ip), vehicle: Klucel (hydroxypropylcellulose) (HPC) 107 % of control | endpoint: mean survival time, dose: 20.0 mg/kg/injection, schedule: Q04DX003 (ip), vehicle: Klucel (hydroxypropylcellulose) (HPC) 103 % of control | endpoint: mean survival time, dose: 40.0 mg/kg/injection, schedule: Q04DX003 (ip), vehicle: Klucel (hydroxypropylcellulose) (HPC) 98 % of control

CC(C)(C)CC(C)(C)c1ccc(OCCOc2ccccc2NS(=O)(=O)c2ccc(N)cc2)cc1
inactive: endpoint: mean survival time, dose: 100.0 mg/kg/injection, schedule: Q01DX001 (ip), vehicle: Klucel (hydroxypropylcellulose) (HPC) 98 % of control | endpoint: mean survival time, dose: 200.0 mg/kg/injection, schedule: Q01DX001 (ip), vehicle: Klucel (hydroxypropylcellulose) (HPC) 96 % of control

CCOC(=O)C(C(C)=O)C1=C(Cl)C(=O)c2ccccc2C1=O (stereo not drawn)
inactive: endpoint: mean survival time, dose: 75.0 mg/kg/injection, schedule: Q01DX001 (ip), vehicle: other 95 % of control | endpoint: mean survival time, dose: 150.0 mg/kg/injection, schedule: Q01DX001 (ip), vehicle: other 94 % of control | endpoint: mean survival time, dose: 300.0 mg/kg/injection, schedule: Q01DX001 (ip), vehicle: other 92 % of control

O=C(c1ccccc1)C(Br)C(Br)c1ccc([N+](=O)[O-])cc1 (stereo not drawn)
inactive: [5] 89 % of control | endpoint: mean survival time, dose: 200.0 mg/kg/injection, schedule: Q04DX002 (ip), vehicle: saline with Tween-80 101 % of control | [6] 101 % of control

Clc1ccc(-n2cccc2)cc1
inactive: [9] 98 % of control | [10] 91 % of control | [11] 98 % of control
